US20260184663A1, “INDENE COMPOUNDS, PHARMACEUTICAL COMPOSITIONS THEREOF, AND THEIR THERAPEUTIC APPLICATIONS” (NucMito Pharmaceuticals co. Ltd., priority 2022, published 2026)

Experiments:
Type in all cases: cell-based
HeLa (cervical cancer) = test: Antiproliferative activity (CCK-8 cell viability), HeLa; conditions: Homo sapiens, 72 h, read-out: Antiproliferative activity in cancerous cells, HELA (inhibition of cell growth); for inhibition at 3.3 µM: Compound concentration: 3.3 μM; for inhibition at 10 µM: Compound concentration: 10 μM; for inhibition at 30 µM: Compound concentration: 30 μM
Method in brief: (§1)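 Cells were seeded at 2,000-5,000/well (HeLa in MEM, HepG2 and SW480 in DMEM, A549 in F-12K, all with 10% FBS) and treated with compound at 3.3, 10 or 30 μM for 72 h at 37° C. CCK-8 was added for 4 h, absorbance was read at 450 nm, and viability was expressed relative to DMSO-treated wells.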

[1] = system: B16F10 (malignant melanoma); test: Antiproliferative activity (CCK-8 cell viability), B16F10; conditions: Mus musculus, 72 h, read-out: Antiproliferative activity in cancerous cells, B16F10 (inhibition of cell growth); for inhibition at 3.3 µM: B16-F10, Compound concentration: 3.3 μM; for inhibition at 10 µM: B16-F10, Compound concentration: 10 μM; for inhibition at 30 µM: B16-F10, Compound concentration: 30 μM
Method in brief: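 Attached B16F10 cells in 96-well plates were incubated with compound at 37° C for 72 h, followed by 10 μL CCK-8 reagent per well and a further 4 h incubation. A multi-well plate reader measured absorbance at 450 nm. Percent viability across replicates was calculated against DMSO vehicle-treated cells.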

[2] = system: A431 (epidermoid carcinoma); test: Antiproliferative activity (CCK-8 cell viability), A431; conditions: Homo sapiens, 72 h, read-out: Antiproliferative activity in cancerous cells, A431 (inhibition of cell growth); for inhibition at 3.3 µM: A-431, Compound concentration: 3.3 μM; for inhibition at 10 µM: A-431, Compound concentration: 10 μM; for inhibition at 30 µM: A-431, Compound concentration: 30 μM
Method in brief: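 Cell viability of compound-treated A431 cells was measured with a Cell Counting Kit-8. Each well received 10 μL of CCK-8 after 72 h of compound exposure, followed by 4 h incubation at 37° C. and a 450 nm plate-reader measurement. Percent viability was calculated relative to DMSO controls across replicates.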

[3] = system: A549 (lung adenocarcinoma); test: Antiproliferative activity (CCK-8 cell viability), A549; conditions: Homo sapiens, 72 h, read-out: Antiproliferative activity in cancerous cells, A549 (inhibition of cell growth); for inhibition at 3.3 µM: Compound concentration: 3.3 μM; for inhibition at 10 µM: Compound concentration: 10 μM; for inhibition at 30 µM: Compound concentration: 30 μM
Method in brief: as §1

[4] = system: alpha-smooth muscle actin (α-SMA); test: Inhibition of TGF-β induced expression of alpha-smooth muscle actin (α-SMA) in CFSC cells (western blot); conditions: compound at 10 μM, TGF-β (10 ng/mL), 24 hours, band intensity vs TGF-β only
Method in brief: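 Values are percent reduction of α-SMA band intensity relative to cells given TGF-β alone, quantified by Western blot densitometry with β-actin probed. Compound was applied at 10 μM alongside 10 ng/mL TGF-β to serum-free CFSC cultures for 24 h at 37 °C.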

SW480 (colon cancer) = test: Antiproliferative activity (CCK-8 cell viability), SW480; conditions: Homo sapiens, 72 h, read-out: Antiproliferative activity in cancerous cells, SW480 (inhibition of cell growth); for inhibition at 3.3 µM: Compound concentration: 3.3 μM; for inhibition at 10 µM: Compound concentration: 10 μM; for inhibition at 30 µM: Compound concentration: 30 μM
Method in brief: as §1

HepG2 (liver cancer) = test: Antiproliferative activity (CCK-8 cell viability), HepG2; conditions: Homo sapiens, 72 h, read-out: Antiproliferative activity in cancerous cells, HepG2 (inhibition of cell growth); for inhibition at 3.3 µM: Compound concentration: 3.3 μM; for inhibition at 10 µM: Compound concentration: 10 μM; for inhibition at 30 µM: Compound concentration: 30 μM
Method in brief: as §1

[5] = system: MDA-MB-231 (breast cancer); test: Antiproliferative activity (CCK-8 cell viability), MDA-MB-231; conditions: Homo sapiens, 72 h, read-out: Antiproliferative activity in cancerous cells, MDA-MB-231 (inhibition of cell growth); for inhibition at 3.3 µM: Compound concentration: 3.3 μM; for inhibition at 10 µM: Compound concentration: 10 μM; for inhibition at 30 µM: Compound concentration: 30 μM
Method in brief: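 In this CCK-8 viability assay, MDA-MB-231 cells maintained in Dulbecco's modified Eagle's medium containing 10% fetal bovine serum were placed in 96-well plates (2,000-5,000 cells/well) and treated with compound for 72 h at 37° C. A 4 h incubation with 10 μL CCK-8 followed, plates were read at 450 nm, and viability was expressed against DMSO vehicle wells across replicates.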

SMILES | inhibition at 3.3 µM (HeLa (cervical cancer)) [%] | inhibition at 10 µM (HeLa (cervical cancer)) [%] | inhibition at 30 µM (HeLa (cervical cancer)) [%] | inhibition at 3.3 µM [1] [%] | inhibition at 10 µM [1] [%] | inhibition at 30 µM [1] [%] | inhibition at 3.3 µM [2] [%] | inhibition at 10 µM [2] [%] | inhibition at 30 µM [2] [%] | inhibition at 3.3 µM [3] [%] | inhibition at 10 µM [3] [%] | inhibition at 30 µM [3] [%] | inhibition at 10 µM [4] [%] | inhibition at 3.3 µM (SW480 (colon cancer)) [%] | inhibition at 10 µM (SW480 (colon cancer)) [%] | inhibition at 30 µM (SW480 (colon cancer)) [%] | inhibition at 3.3 µM (HepG2 (liver cancer)) [%] | inhibition at 10 µM (HepG2 (liver cancer)) [%] | inhibition at 3.3 µM [5] [%] | inhibition at 10 µM [5] [%] | other results
COc1ccc(Oc2ccc(/C=C3\C(C)=C(CC(=O)O)c4cc(F)ccc43)cn2)cc1 [E1, (E)-2-(5-Fluoro-1-((6-(4-methoxyphenoxy)pyridin-3-yl)methylene)-2-methyl-1H-inden-3-yl)acetic acid] | < 30 | < 30 | 30 to 50 | < 30 | < 30 | 30 to 50 | < 30 | < 30 | < 30 | < 30 | 30 to 50 | 30 to 50 | < 30 | < 30 | < 30 | 30 to 50 | < 30 | < 30 | < 30 | < 30 | inhibition at 30 µM (HepG2 (liver cancer)): 30 to 50%; inhibition at 30 µM [5]: ≥ 50%
CC1=C(Cc2noc(=O)[nH]2)c2cc(F)ccc2/C1=C\c1cccc(Oc2ccccc2)c1 [C32, (Z)-3-((5-Fluoro-2-methyl-1-(3-phenoxybenzylidene)-1H-inden-3-yl)methyl)-1,2,4-oxadiazol-5(4H)-one] | < 30 | 30 to 50 |  | < 30 | 30 to 50 |  | < 30 | < 30 |  | < 30 | < 30 |  | < 30 | < 30 | < 30 |  | < 30 | < 30 | ≥ 50 | ≥ 50 | 
CC1=C(CC(=O)O)c2ccc(F)c(F)c2/C1=C/c1cccc(Oc2ccccc2)c1 [E4, (E)-2-(6,7-Difluoro-2-methyl-1-(3-phenoxybenzylidene)-1H-inden-3-yl)acetic acid] | 30 to 50 | ≥ 50 | ≥ 50 | < 30 | ≥ 50 | ≥ 50 | < 30 | < 30 | ≥ 50 | < 30 | ≥ 50 | ≥ 50 | > 80 | < 30 | < 30 | ≥ 50 | < 30 | 30 to 50 | < 30 | 30 to 50 | inhibition at 30 µM (HepG2 (liver cancer)): ≥ 50%; inhibition at 30 µM [5]: ≥ 50%
